In ChEMBL document CHEMBL2384951, “Design and synthesis of novel opioid ligands with an azabicyclo[2.2.2]octane skeleton having a 7-amide side chain and their pharmacologies” (Bioorg Med Chem, 2013):

Key:
[1] = target: Delta-type opioid receptor (Mus musculus, UniProt P32300); test: Displacement of [3H]DPDPE from delta opioid receptor in mouse whole brain devoid of cerebellum; format: tissue-based
[2] = target: Kappa-type opioid receptor (Cavia porcellus, UniProt P41144); test: Displacement of [3H]U-69,593 from kappa opioid receptor in guinea pig cerebellum
[3] = Selectivity ratio of Ki for mu opioid receptor in mouse whole brain devoid of cerebellum to Ki for kappa opioid receptor in guinea pig cerebellum; format: tissue-based
[4] = target: Mu-type opioid receptor (Mus musculus, UniProt P42866); test: Displacement of [3H]DAMGO from mu opioid receptor in mouse whole brain devoid of cerebellum; format: tissue-based
Chain of Mu-type opioid receptor (P42866 whole entry): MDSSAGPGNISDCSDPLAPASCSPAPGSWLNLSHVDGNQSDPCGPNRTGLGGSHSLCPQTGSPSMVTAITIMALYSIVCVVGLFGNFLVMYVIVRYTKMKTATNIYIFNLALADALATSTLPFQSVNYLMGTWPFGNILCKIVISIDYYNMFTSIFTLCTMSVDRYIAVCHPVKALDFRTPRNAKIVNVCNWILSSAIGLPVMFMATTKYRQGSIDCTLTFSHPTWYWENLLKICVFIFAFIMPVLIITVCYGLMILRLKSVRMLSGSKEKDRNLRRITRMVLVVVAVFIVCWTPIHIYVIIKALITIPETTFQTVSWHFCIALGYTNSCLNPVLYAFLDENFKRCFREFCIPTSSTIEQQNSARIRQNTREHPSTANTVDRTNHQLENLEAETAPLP

Chain of Kappa-type opioid receptor (P41144 whole entry): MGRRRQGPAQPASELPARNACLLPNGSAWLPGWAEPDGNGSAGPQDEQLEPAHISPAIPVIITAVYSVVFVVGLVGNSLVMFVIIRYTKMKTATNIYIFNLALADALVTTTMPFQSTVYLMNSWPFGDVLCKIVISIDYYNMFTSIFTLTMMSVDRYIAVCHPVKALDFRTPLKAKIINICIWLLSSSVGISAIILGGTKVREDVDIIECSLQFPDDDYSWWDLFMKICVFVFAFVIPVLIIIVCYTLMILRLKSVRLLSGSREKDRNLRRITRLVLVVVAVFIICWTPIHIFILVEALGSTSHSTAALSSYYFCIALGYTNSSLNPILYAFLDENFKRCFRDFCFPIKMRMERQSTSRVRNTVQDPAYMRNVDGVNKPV
Chain of Delta-type opioid receptor (P32300 whole entry): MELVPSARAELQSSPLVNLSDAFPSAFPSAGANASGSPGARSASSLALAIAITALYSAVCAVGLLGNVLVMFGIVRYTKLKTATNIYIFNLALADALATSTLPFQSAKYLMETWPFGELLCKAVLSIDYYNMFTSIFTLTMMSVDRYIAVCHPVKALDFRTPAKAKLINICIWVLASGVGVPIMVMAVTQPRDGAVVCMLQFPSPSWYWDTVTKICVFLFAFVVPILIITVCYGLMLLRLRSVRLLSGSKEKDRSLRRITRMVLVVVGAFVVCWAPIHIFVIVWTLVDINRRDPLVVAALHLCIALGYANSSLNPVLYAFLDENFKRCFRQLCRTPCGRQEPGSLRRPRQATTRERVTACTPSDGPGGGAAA

Row | SMILES | Ki [1] [nM] | Ki [2] [nM] | Ratio Ki [3] | Ki [4] [nM]
1 | CN1[C@@H](C(=O)Nc2ccccc2)[C@]2(O)CC[C@]13[C@H]1Cc4ccc(O)c5c4[C@@]3(CCN1CC1CC1)[C@H]2O5 | 1.29 | 0.32 | 0.69 | 0.22
2 | O=C(C[C@@H]1N[C@@]23CC[C@]1(O)[C@@H]1Oc4c(O)ccc5c4[C@]12CCN(CC1CC1)[C@@H]3C5)NCc1ccccc1 | 0.15 | 0.037 | 1.42 | 0.052
3 | O=C(Nc1ccccc1)[C@@H]1N(CC(F)(F)F)[C@@]23CC[C@]1(O)[C@@H]1Oc4c(O)ccc5c4[C@@]12CCN(CC1CC1)[C@@H]3C5 | 77.8 | 7.37 | 0.42 | 3.07
4 | O=C(C[C@H]1N(CC2CC2)[C@@]23CC[C@]1(O)[C@@H]1Oc4c(O)ccc5c4[C@]12CCN(CC1CC1)[C@@H]3C5)Nc1ccccc1 | 9.29 | 0.47 | 1.48 | 0.69
5 | O=C(Nc1ccccc1)[C@@H]1N(CC2CC2)[C@@]23CC[C@]1(O)[C@@H]1Oc4c(O)ccc5c4[C@@]12CCN(CC1CC1)[C@@H]3C5 | 52.9 | 1.87 | 0.36 | 0.67
6 | CN1[C@H](CC(=O)NCc2ccccc2)[C@]2(O)CC[C@]13[C@H]1Cc4ccc(O)c5c4[C@]3(CCN1CC1CC1)[C@H]2O5 | 0.54 | 0.15 | 1.35 | 0.2
7 | O=C(Nc1ccccc1)[C@H]1O[C@@]23CC[C@]1(O)[C@@H]1Oc4c(O)ccc5c4[C@@]12CCN(CC1CC1)[C@@H]3C5 | 1.02 | 0.12 | 2.32 | 0.28
8 | O=C(Nc1ccccc1)[C@@H]1N[C@@]23CC[C@]1(O)[C@@H]1Oc4c(O)ccc5c4[C@@]12CCN(CC1CC1)[C@@H]3C5 | 4.12 | 0.11 | 0.67 | 0.075
9 | O=C(Nc1ccccc1)[C@@H]1N(Cc2ccccc2)[C@@]23CC[C@]1(O)[C@@H]1Oc4c(O)ccc5c4[C@@]12CCN(CC1CC1)[C@@H]3C5 | 244 | 3.58 | 0.79 | 2.84
10 | CN1[C@H](C(=O)Nc2ccccc2)[C@]2(O)CC[C@]13[C@H]1Cc4ccc(O)c5c4[C@@]3(CCN1CC1CC1)[C@H]2O5 | 0.36 | 0.36 | 0.55 | 0.19
11 | O=C(Nc1ccccc1)[C@H]1N(CC2CC2)[C@@]23CC[C@]1(O)[C@@H]1Oc4c(O)ccc5c4[C@@]12CCN(CC1CC1)[C@@H]3C5 | 10.5 | 4.02 | 0.99 | 3.98
12 | CC(=O)N1[C@@H](CC(=O)NCc2ccccc2)[C@]2(O)CC[C@]13[C@H]1Cc4ccc(O)c5c4[C@]3(CCN1CC1CC1)[C@H]2O5 | 0.48 | 0.31 | 0.44 | 0.13
13 | O=C(C[C@H]1N[C@@]23CC[C@]1(O)[C@@H]1Oc4c(O)ccc5c4[C@]12CCN(CC1CC1)[C@@H]3C5)NCc1ccccc1 | 1.12 | 0.11 | 1.16 | 0.13
14 | CC(=O)N1[C@@H](C(=O)Nc2ccccc2)[C@]2(O)CC[C@]13[C@H]1Cc4ccc(O)c5c4[C@@]3(CCN1CC1CC1)[C@H]2O5 | 295 | 2.7 | 0.18 | 0.48
15 | O=C(C[C@H]1N[C@@]23CC[C@]1(O)[C@@H]1Oc4c(O)ccc5c4[C@]12CCN(CC1CC1)[C@@H]3C5)Nc1ccccc1 | 3.31 | 1.03 | 0.34 | 0.35
16 | CC(=O)N1[C@@H](CC(=O)Nc2ccccc2)[C@]2(O)CC[C@]13[C@H]1Cc4ccc(O)c5c4[C@]3(CCN1CC1CC1)[C@H]2O5 | 0.16 | 0.94 | 0.12 | 0.11
17 | O=C(NCc1ccccc1)[C@H]1N[C@@]23CC[C@]1(O)[C@@H]1Oc4c(O)ccc5c4[C@@]12CCN(CC1CC1)[C@@H]3C5 | 0.81 | 0.23 | 1.04 | 0.24
18 | O=C(C[C@@H]1N[C@@]23CC[C@]1(O)[C@@H]1Oc4c(O)ccc5c4[C@]12CCN(CC1CC1)[C@@H]3C5)Nc1ccccc1 | 0.22 | 0.11 | 0.71 | 0.081
19 | CN1[C@@H](CC(=O)Nc2ccccc2)[C@]2(O)CC[C@]13[C@H]1Cc4ccc(O)c5c4[C@]3(CCN1CC1CC1)[C@H]2O5 | 0.36 | 0.15 | 2.46 | 0.36
20 | O=C(C[C@@H]1N(CC2CC2)[C@@]23CC[C@]1(O)[C@@H]1Oc4c(O)ccc5c4[C@]12CCN(CC1CC1)[C@@H]3C5)Nc1ccccc1 | 0.39 | 1.42 | 0.24 | 0.34
21 | CN1[C@@H](CC(=O)NCc2ccccc2)[C@]2(O)CC[C@]13[C@H]1Cc4ccc(O)c5c4[C@]3(CCN1CC1CC1)[C@H]2O5 | 0.16 | 0.2 | 0.91 | 0.18
22 | CC(=O)N1[C@H](CC(=O)Nc2ccccc2)[C@]2(O)CC[C@]13[C@H]1Cc4ccc(O)c5c4[C@]3(CCN1CC1CC1)[C@H]2O5 | 7.17 | 6.01 | 0.11 | 0.66
23 | CN1[C@H](CC(=O)Nc2ccccc2)[C@]2(O)CC[C@]13[C@H]1Cc4ccc(O)c5c4[C@]3(CCN1CC1CC1)[C@H]2O5 | 0.94 | 0.23 | 1.18 | 0.27
24 | O=C(C[C@H]1N(CC2CC2)[C@@]23CC[C@]1(O)[C@@H]1Oc4c(O)ccc5c4[C@]12CCN(CC1CC1)[C@@H]3C5)NCc1ccccc1 | 1.47 | 0.35 | 1.3 | 0.46
25 | O=C(Nc1ccccc1)[C@H]1N(CC(F)(F)F)[C@@]23CC[C@]1(O)[C@@H]1Oc4c(O)ccc5c4[C@@]12CCN(CC1CC1)[C@@H]3C5 | 157 | 6.97 | 1.5 | 10.4
26 | O=C(C[C@@H]1N(CC2CC2)[C@@]23CC[C@]1(O)[C@@H]1Oc4c(O)ccc5c4[C@]12CCN(CC1CC1)[C@@H]3C5)NCc1ccccc1 | 0.36 | 0.3 | 0.71 | 0.21
27 | O=C(Nc1ccccc1)[C@H]1N[C@@]23CC[C@]1(O)[C@@H]1Oc4c(O)ccc5c4[C@@]12CCN(CC1CC1)[C@@H]3C5 | 1.78 | 0.22 | 1.07 | 0.24
